Measurements reported in BindingDB's records for doi:10.1021/jm0209984 (Universit&#224, 2003).

Test: Concentration required to achieve 50% protection of MT-4 cell from the HIV-1 induced cytopathogenicity was determined by the MTT method

SMILES	EC50
O=C1c2ccccc2C(=O)N1CCOC(=S)N(C(=O)c1ccco1)c1ccc(Cl)cc1 [O-2-(1,3-dioxoisoindolin-2-yl)ethyl 4-chlorophenyl(furan-2-carbonyl)carbamothioate]	0.007 µM
O=C1c2ccccc2C(=O)N1CCOC(=S)N(C(=O)c1cccs1)c1cccc(F)c1 [(3-Fluoro-phenyl)-(thiophene-2-carbonyl)-thiocarbamic acid O-[2-(1,3-dioxo-1,3-dihydro-isoindol-2-yl)-ethyl] ester]	11 µM
O=C(c1cc(Cl)cc(Cl)c1)N(C(=S)OCCOc1ccccc1)c1ccccc1 [(3,5-Dichloro-benzoyl)-phenyl-thiocarbamic acid O-(2-phenoxy-ethyl) ester]	8.8 µM
O=C(/C=C/c1ccccc1)N(C(=S)OCCOc1ccccc1)c1ccccc1 [Phenyl-(3-phenyl-acryloyl)-thiocarbamic acid O-(2-phenoxy-ethyl) ester]	7.7 µM
O=C(c1ccccc1)N(C(=S)OCCc1ccccc1)c1ccccc1 [Benzoyl-phenyl-thiocarbamic acid O-phenethyl ester]	4.2 µM
O=C1c2ccccc2C(=O)N1CCOC(=S)N(C(=O)c1cccs1)c1ccc([N+](=O)[O-])cc1 [(4-Nitro-phenyl)-(thiophene-2-carbonyl)-thiocarbamic acid O-[2-(1,3-dioxo-1,3-dihydro-isoindol-2-yl)-ethyl] ester]	0.01 µM
O=C(/C=C/c1ccccc1)N(C(=S)OCCc1ccccc1)c1ccccc1 [Phenyl-(3-phenyl-acryloyl)-thiocarbamic acid O-phenethyl ester]	4.5 µM
COc1cc(C(=O)N(C(=S)OCCOc2ccccc2)c2ccccc2)cc(OC)c1OC [Phenyl-(3,4,5-trimethoxy-benzoyl)-thiocarbamic acid O-(2-phenoxy-ethyl) ester]	9.6 µM
O=C1c2ccccc2C(=O)N1CCOC(=S)N(C(=O)c1cccs1)c1cccc([N+](=O)[O-])c1 [(3-Nitro-phenyl)-(thiophene-2-carbonyl)-thiocarbamic acid O-[2-(1,3-dioxo-1,3-dihydro-isoindol-2-yl)-ethyl] ester]	0.38 µM
S=C(NCCc1ccccn1)Nc1ccc(Br)cn1 [N-(2-(2-Pyridylethyl))-N -(2-(5-bromopyridyl))thiourea]	0.02 µM
O=C(c1ccco1)N(C(=S)OCCOc1ccccc1)c1ccccc1 [(Furan-2-carbonyl)-phenyl-thiocarbamic acid O-(2-phenoxy-ethyl) ester]	8.4 µM
O=C(c1ccc(Cl)cc1)N(C(=S)OCCc1ccccc1)c1ccccc1 [(4-Chloro-benzoyl)-phenyl-thiocarbamic acid O-phenethyl ester]	4 µM
O=C(c1ccc(Cl)cc1)N(C(=S)OCCOc1ccccc1)c1ccccc1 [(4-Chloro-benzoyl)-phenyl-thiocarbamic acid O-(2-phenoxy-ethyl) ester]	10.3 µM
O=C(c1ccccc1)N(C(=S)OCCSc1ccccc1)c1ccccc1 [Benzoyl-phenyl-thiocarbamic acid O-(2-phenylsulfanyl-ethyl) ester]	> 44 µM
O=C1c2ccccc2C(=O)N1CCOC(=S)N(C(=O)c1cccs1)c1cccc(Br)c1 [(3-Bromo-phenyl)-(thiophene-2-carbonyl)-thiocarbamic acid O-[2-(1,3-dioxo-1,3-dihydro-isoindol-2-yl)-ethyl] ester]	1.2 µM
O=C(c1ccc(Cl)cc1Cl)N(C(=S)OCCOc1ccccc1)c1ccccc1 [(2,4-Dichloro-benzoyl)-phenyl-thiocarbamic acid O-(2-phenoxy-ethyl) ester]	11.6 µM
CCN(CC)c1ccc(N(C(=O)c2cccs2)C(=S)OCCN2C(=O)c3ccccc3C2=O)cc1 [(4-Diethylamino-phenyl)-(thiophene-2-carbonyl)-thiocarbamic acid O-[2-(1,3-dioxo-1,3-dihydro-isoindol-2-yl)-ethyl] ester]	11 µM
CC(COc1ccccc1)OC(=S)N(C(=O)c1cccs1)c1ccc([N+](=O)[O-])cc1 (stereo not drawn) [(4-Nitro-phenyl)-(thiophene-2-carbonyl)-thiocarbamic acid O-(1-methyl-2-phenoxy-ethyl) ester]	6 µM
O=C(c1cccs1)N(C(=S)OCCOc1ccccc1)c1ccccc1 [Phenyl-(thiophene-2-carbonyl)-thiocarbamic acid O-(2-phenoxy-ethyl) ester]	8.6 µM
O=C(c1ccccc1)N(C(=S)OCCOc1ccccc1)c1ccccc1 [Benzoyl-phenyl-thiocarbamic acid O-(2-phenoxy-ethyl) ester]	8 µM
CC(COc1ccccc1)OC(=S)N(C(=O)c1cccs1)c1ccc(Cl)cc1 (stereo not drawn) [(4-Chloro-phenyl)-(thiophene-2-carbonyl)-thiocarbamic acid O-(1-methyl-2-phenoxy-ethyl) ester]	11 µM
O=C1c2ccccc2C(=O)N1CCOC(=S)N(C(=O)c1ccccc1)c1ccc(Cl)cc1 [O-2-(1,3-dioxoisoindolin-2-yl)ethyl benzoyl(4-chlorophenyl)carbamothioate]	0.1 µM

SMILES	EC50
O=C(c1ccc(Cl)c([N+](=O)[O-])c1)N(C(=S)OCCOc1ccccc1)c1ccccc1 [(4-Chloro-3-nitro-benzoyl)-phenyl-thiocarbamic acid O-(2-phenoxy-ethyl) ester]	7.6 µM
CC(=O)c1cccc(N(C(=O)c2cccs2)C(=S)OCCN2C(=O)c3ccccc3C2=O)c1 [(3-Acetyl-phenyl)-(thiophene-2-carbonyl)-thiocarbamic acid O-[2-(1,3-dioxo-1,3-dihydro-isoindol-2-yl)-ethyl] ester]	6 µM
O=C1c2ccccc2C(=O)N1CCOC(=S)N(C(=O)c1cccs1)c1ccc(F)cc1 [(4-Fluoro-phenyl)-(thiophene-2-carbonyl)-thiocarbamic acid O-[2-(1,3-dioxo-1,3-dihydro-isoindol-2-yl)-ethyl] ester]	0.1 µM
Cc1cccc(N(C(=O)c2cccs2)C(=S)OCCN2C(=O)c3ccccc3C2=O)c1 [(Thiophene-2-carbonyl)-m-tolyl-thiocarbamic acid O-[2-(1,3-dioxo-1,3-dihydro-isoindol-2-yl)-ethyl] ester]	10 µM
O=C(c1ccccc1)N(C(=S)OCCOc1ccccc1)c1ccc(F)cc1 [Benzoyl-(4-fluoro-phenyl)-thiocarbamic acid O-(2-phenoxy-ethyl) ester]	4 µM
O=C1c2ccccc2C(=O)N1CCOC(=S)N(C(=O)c1cccs1)c1cccc(Cl)c1 [(3-Chloro-phenyl)-(thiophene-2-carbonyl)-thiocarbamic acid O-[2-(1,3-dioxo-1,3-dihydro-isoindol-2-yl)-ethyl] ester]	6 µM
CC(COc1ccccc1)OC(=S)N(C(=O)c1ccccc1)c1ccccc1 (stereo not drawn) [Benzoyl-phenyl-thiocarbamic acid O-(1-methyl-2-phenoxy-ethyl) ester]	1.3 µM
O=C1c2ccccc2C(=O)N1CCOC(=S)N(C(=O)c1cccs1)c1ccccc1Cl [(2-Chloro-phenyl)-(thiophene-2-carbonyl)-thiocarbamic acid O-[2-(1,3-dioxo-1,3-dihydro-isoindol-2-yl)-ethyl] ester]	11 µM
O=C1c2ccccc2C(=O)N1CCOC(=S)N(C(=O)c1ccccc1)c1ccccc1 [Benzoyl-phenyl-thiocarbamic acid O-[2-(1,3-dioxo-1,3-dihydro-isoindol-2-yl)-ethyl] ester]	0.4 µM
Cc1ccc(C(=O)N(C(=S)OCCOc2ccccc2)c2ccccc2)cc1 [(4-Methyl-benzoyl)-phenyl-thiocarbamic acid O-(2-phenoxy-ethyl) ester]	9.9 µM
CCc1ccccc1N(C(=O)c1cccs1)C(=S)OCCN1C(=O)c2ccccc2C1=O [(2-Ethyl-phenyl)-(thiophene-2-carbonyl)-thiocarbamic acid O-[2-(1,3-dioxo-1,3-dihydro-isoindol-2-yl)-ethyl] ester]	11 µM
O=C1c2ccccc2C(=O)N1CCOC(=S)N(C(=O)c1ccccc1)c1ccc(Br)cc1 [Benzoyl-(4-bromo-phenyl)-thiocarbamic acid O-[2-(1,3-dioxo-1,3-dihydro-isoindol-2-yl)-ethyl] ester]	0.035 µM
O=C1c2ccccc2C(=O)N1CCOC(=S)N(C(=O)c1ccc(Cl)cc1)c1ccc(Cl)cc1 [O-2-(1,3-dioxoisoindolin-2-yl)ethyl 4-chlorobenzoyl(4-chlorophenyl)carbamothioate]	0.025 µM
O=C1c2ccccc2C(=O)N1CCOC(=S)N(C(=O)c1ccco1)c1ccc([N+](=O)[O-])cc1 [(Furan-2-carbonyl)-(4-nitro-phenyl)-thiocarbamic acid O-[2-(1,3-dioxo-1,3-dihydro-isoindol-2-yl)-ethyl] ester]	0.008 µM
CCCOC(=O)N(C(=S)OC(C)COc1ccccc1)c1ccccc1 (stereo not drawn) [O-(1-methyl-2-phenoxyethyl) O-propyl phenylimidothiodicarbonate]	131 µM
Cc1ccc(N(C(=O)c2cccs2)C(=S)OCCN2C(=O)c3ccccc3C2=O)cc1 [(Thiophene-2-carbonyl)-p-tolyl-thiocarbamic acid O-[2-(1,3-dioxo-1,3-dihydro-isoindol-2-yl)-ethyl] ester]	0.4 µM
CC(COc1ccccc1)OC(=S)N(C(=O)c1cccs1)c1ccccc1 (stereo not drawn) [Phenyl-(thiophene-2-carbonyl)-thiocarbamic acid O-(1-methyl-2-phenoxy-ethyl) ester]	2 µM
O=C1c2ccccc2C(=O)N1CCOC(=S)N(C(=O)c1cccs1)c1cccc(C(F)(F)F)c1 [(Thiophene-2-carbonyl)-(3-trifluoromethyl-phenyl)-thiocarbamic acid O-[2-(1,3-dioxo-1,3-dihydro-isoindol-2-yl)-ethyl] ester]	11 µM
O=C1c2ccccc2C(=O)N1CCOC(=S)N(C(=O)c1cccs1)c1ccc(I)cc1 [(4-Iodo-phenyl)-(thiophene-2-carbonyl)-thiocarbamic acid O-[2-(1,3-dioxo-1,3-dihydro-isoindol-2-yl)-ethyl] ester]	0.01 µM
CC(COc1ccccc1)OC(=S)N(C(=O)c1cccc([N+](=O)[O-])c1)c1ccccc1 (stereo not drawn) [(3-Nitro-benzoyl)-phenyl-thiocarbamic acid O-(1-methyl-2-phenoxy-ethyl) ester]	3.6 µM
Cc1ccccc1N(C(=O)c1cccs1)C(=S)OCCN1C(=O)c2ccccc2C1=O [(Thiophene-2-carbonyl)-o-tolyl-thiocarbamic acid O-[2-(1,3-dioxo-1,3-dihydro-isoindol-2-yl)-ethyl] ester]	11 µM
